According to the NIST ThermoML archive (doi:10.1016/j.jct.2012.11.004):
± gives the expanded uncertainty stated by the source.

Test: mn = molality of the nth substance listed, in mol/kg
Conditions: 101 kPa, Liquid; for mass density: Vibrating tube method; for speed of sound: Pulse-echo method

O=S(=O)([O-])C(F)(F)F.O=S(=O)([O-])C(F)(F)F.O=S(=O)([O-])C(F)(F)F.[Gd+3] [gadolinium (III) trifluoromethanesulfonate] + CC(=O)N(C)C
Conditions | mass density, 283.15 K [kg/m3] | mass density, 293.15 K [kg/m3] | mass density, 298.15 K [kg/m3] | mass density, 303.15 K [kg/m3] | mass density, 313.15 K [kg/m3] | mass density, 323.15 K [kg/m3] | mass density, 333.15 K [kg/m3] | speed of sound, 298.15 K [m/s]
m1 = 0.02128 | 959.25 ± 0.9 | 950.04 ± 0.9 | 945.43 ± 0.9 | 940.82 ± 0.9 | 931.58 ± 0.9 | 922.32 ± 0.9 | 913.01 ± 0.9 | 1456.1 ± 1.3
m1 = 0.02915 | 962.65 ± 0.9 | 953.45 ± 0.9 | 948.84 ± 0.9 | 944.24 ± 0.9 | 935 ± 0.9 | 925.73 ± 0.9 | 916.44 ± 0.91 | 1455.9 ± 1.3
m1 = 0.03784 | 966.42 ± 0.91 | 957.21 ± 0.91 | 952.61 ± 0.91 | 948.01 ± 0.91 | 938.78 ± 0.91 | 929.52 ± 0.91 | 920.23 ± 0.91 | 1455.7 ± 1.3
m1 = 0.04864 | 971.16 ± 0.92 | 961.95 ± 0.92 | 957.35 ± 0.92 | 952.76 ± 0.92 | 943.52 ± 0.92 | 934.27 ± 0.92 | 924.97 ± 0.92 | 1455.4 ± 1.3
m1 = 0.05951 | 975.96 ± 0.92 | 966.76 ± 0.92 | 962.16 ± 0.92 | 957.57 ± 0.92 | 948.33 ± 0.92 | 939.08 ± 0.92 | 929.78 ± 0.92 | 1455 ± 1.3
m1 = 0.07557 | 983.07 ± 0.93 | 973.86 ± 0.93 | 969.27 ± 0.93 | 964.67 ± 0.93 | 955.44 ± 0.93 | 946.19 ± 0.93 | 936.89 ± 0.93 | 1454.7 ± 1.3
m1 = 0.0965 | 992.52 ± 0.95 | 983.33 ± 0.95 | 978.73 ± 0.95 | 974.12 ± 0.95 | 964.89 ± 0.95 | 955.64 ± 0.95 | 946.35 ± 0.95 | 1454 ± 1.3
m1 = 0.1165 | 1001.67 ± 0.97 | 992.48 ± 0.96 | 987.87 ± 0.96 | 983.27 ± 0.96 | 974.05 ± 0.96 | 964.79 ± 0.96 | 955.49 ± 0.96 | 1453.6 ± 1.3
m1 = 0.1341 | 1009.86 ± 0.98 | 1000.66 ± 0.98 | 996.06 ± 0.98 | 991.46 ± 0.98 | 982.24 ± 0.98 | 972.98 ± 0.98 | 963.68 ± 0.98 | 1452.9 ± 1.4
m1 = 0.1567 | 1020.47 ± 1 | 1011.27 ± 1 | 1006.67 ± 1 | 1002.09 ± 1 | 992.85 ± 1 | 983.6 ± 1 | 974.31 ± 1 | 1452.5 ± 1.4
m1 = 0.1757 | 1029.6 ± 1 | 1020.41 ± 1 | 1015.81 ± 1 | 1011.21 ± 1 | 1001.99 ± 1 | 992.73 ± 1 | 983.44 ± 1 | 1451.8 ± 1.4
